Results taken from patent publication US12545653B2, “Compound as PPAR agonist and application thereof” (USA Elixiria Biotech Inc., priority 2019, dated 2026).

Experiments:
PPARγ = target: T1, PPARγ (Homo sapiens, UniProt P37231); experiment: In vitro transcriptional activity of PPARγ gene (PPRE-luciferase reporter, HEK 293 T cells); type: cell-based; settings: HEK 293 T cells transfected with PPARγ expression and PPRE-luc plasmids, 21 hours; read-out: EC50 of PPARγ gene activation
T1 construct: expressed in transfected cells; host or cells: HEK 293 T cells
T1 sequence (P37231 1-505): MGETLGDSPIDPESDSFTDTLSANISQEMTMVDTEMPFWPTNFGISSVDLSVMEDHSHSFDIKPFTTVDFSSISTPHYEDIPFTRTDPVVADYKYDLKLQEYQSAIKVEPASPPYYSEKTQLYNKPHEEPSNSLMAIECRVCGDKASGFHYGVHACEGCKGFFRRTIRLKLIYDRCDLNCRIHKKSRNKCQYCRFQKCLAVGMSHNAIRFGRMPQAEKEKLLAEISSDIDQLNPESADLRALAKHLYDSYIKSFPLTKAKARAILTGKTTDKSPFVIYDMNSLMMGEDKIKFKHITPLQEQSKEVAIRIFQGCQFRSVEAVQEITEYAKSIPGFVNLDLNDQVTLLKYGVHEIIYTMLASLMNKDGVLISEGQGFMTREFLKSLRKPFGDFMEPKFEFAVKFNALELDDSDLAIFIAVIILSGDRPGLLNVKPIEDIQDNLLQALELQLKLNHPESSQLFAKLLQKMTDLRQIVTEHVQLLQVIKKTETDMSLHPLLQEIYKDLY
Description: In this experiment, the PPARγ gene was used as target gene to detect the in vitro transcription activity of the compounds. The compounds of interest were detected was first dissolved with dimethyl sulfoxide (DMSO). […] First two plasmids were constructed: PPARγ protein expression plasmid and luciferase reporter plasmid. They are both from the lentiviral plasmid pLV-CMVIE-ZsGreen-Puro, whose DNA sequence contains the cytomegalovirus immediate early (CMVie) promoter, ZsGreen and Puro dual reporter. The PPARγ expression plasmid pLV-CMVIE-PPAR[…]-ZsGreen-Puro was constructed by cloning full-length coding sequences of the pertinent receptors into pHBLV-CMVIE-ZsGreen-Puro vector. To construct the luciferase (luc) reporter plasmid pLV-PPRE-luc-ZsGreen-Puro, the CMVie promoter in plasmid pHBLV-CMVIE-ZsGreenPuro was first replaced by a peroxisome proliferator responsive element (PPRE) containing fragments comprised the nucleotide sequence 50-[…], repeated four times in tandem, to generate a new plasmid, at a multiple cloning site of which the luc gene was then inserted. […] The compounds used for screening are representatives for compounds listed in Table 2, and Tables 3 of the present invention. […] Cells were distributed in 10-cm tissue culture plates at a density of 5.5 million cells per plate, and then transfected with the luciferase reporter plasmid (6 nanogram/plate) and the PPARγ expression plasmid (18 nanogram/plate). Cells were cultured for 6 hours. […] Then the cells were distributed in 96-well plates at a density of 20,000 cells per well. After incubation for 6 h, compounds or control with different concentration were placed into each well, resulting in the finical concentration of […] with each concentration in triplicate. Twenty-one hours later, promoter activation was detected by the addition of SteadyLite (PerkinElmer, Waltham, MA) and GloMax 96 Microplate Luminometer (Promega, Madison, WI). The amount of Luminometer emitted from each well is positively correlated with the expression of PPARγ gene. A three-parameter Sigmoid function curve was used to fit the obtained data. The abscissa represents the logarithmic value of the concentration, and the ordinate represents the percentage of PPARγ gene activation relative to those of the control. […] In Statistical analysis, the coefficient of variation is used to measure the robustness and repeatability of the experiment. […] The difference is significant with P<0.05. EC50 is a parameter of its activity.

APP/PS1 transgenic mice = experiment: Alzheimer's disease model, eight-arm radial water maze and brain gene expression; type: in vivo, mouse; settings: 30 days in food, 10 mg/kg body weight/day (donepezil 3 mg/kg body weight/day)
Description: A common indicator used in academia in memory and dementia experiments is the number of errors in the water maze (reference memory). More errors mean poorer memory. On the last 3 days of dosing, eight-arm radial water maze was used by experimenters who were blind to drug treatment. As a classic experimental instrument, to detect slight deficits in learning and memory, the eight-arm water maze is more sensitive than not only Morris maze, but also Six-arm radial water maze. For details, see reference 8: Alamed J et al. Two-day radial-arm water maze learning and memory task; robust resolution of amyloid-related memory deficits in transgenic mice [J]. […] This experiment uses an eight-arm water maze built in accordance with the above literature. The eight-arm water maze is placed in a basin with an interior diameter of 102 cm. Each arm measures 30 cm long, 14.5 cm wide, and 40 cm high. Escape platform is located at the end of one of the arms. In the reference memory version of the task described here, the goal arm is held constant for all trials, with a different start arm on successive trials. On day one, mice received 12 trials, with trials alternating between visible and hidden platform. On day 2 and 3, mice received 12 additional trials but the platform was kept hidden throughout the trials. Entry into an incorrect arm was scored as a spatial reference error. Errors were averaged into three trial blocks, with four blocks per day, e.g., the first block (the 1st to 3rd trial), the second block (the 4th to 6th trial), and so on. […]. The line charts were made with the number of blocks as the abscissa and the average of the number of errors as the ordinate. At the end of the experiments, the cerebral cortex and hippocampus of the mice were removed, RNA was extracted, and the expression of many genes was analyzed by semi-quantitative RT-PCR. […] The difference is significant with P<0.05.

[1] = tested on: rat model of hyperglycemia-induced nephropathy; experiment: Hyperglycemia-induced nephropathy model (streptozotocin); type: in vivo; settings: streptozotocin rats, 5 mg/kg body weight/day in food, 90 days
Method: The method was as follows:
Wild type Sprague-Dawley rats were used. The compounds was dissolved in DMSO and mixed into food pellets. The animals were given ad libitum access to the pellets. […] In addition, 3 days before compound treatment, the animal of group 2 to 4 were given a single intraperitoneal injection of streptozotocin, and 3 days later, blood glucose levels were measured from tail veins using a glucose meter. Animals with blood glucose levels above 500˜650 milligrams per deciliter were considered as hyperglycemia and were used for further study. No any side effect, or significant body weight changes, or significant dietary changes were found during the administration. After 90 days after initiation of treatment, blood pressure values were measured with the tail cuff system. The day before the kidneys were harvested, animals were placed in metabolic cages for 24 h for urine collection, and albumin to creatinine ratio (ACR) was measured. Animals were then fasted for 12 hours and sacrificed under anesthesia with a 10% chloral hydrate solution (0.3 g/kg). Serum samples were isolated and biochemical parameters were analyzed with by enzyme colorimetry in an automatic analyzer (Roche) to determine the FBG (fasting blood glucose) level (unit millimole/L). In addition, fasting insulin (FINS) levels, where the units are milliIU/L, were determined by enzyme-linked immunosorbent assay (ELISA) method with anti-rat insulin antibodies, and TNF-α was detected by rat tumor necrosis factor-α (TNF-α) ELISA kit (BD). […] The difference is significant with P<0.05.

klotho gene = experiment: In vivo brain transcriptional activity of klotho gene (RT-PCR of brain mRNA); set-up: species or system mouse; settings: 10 mg/kg body weight/day tail vein
Method: To verify this hypothesis, adult male Kunming mice were used in the experiments. […] The injection volume is 8 ml/kg body weight. Dimethyl sulfoxide (DMSO) was used as a vehicle control of the compounds. […] The RNA was then reverse-transcribed to the cDNA, and quantified by SYBR Green fluorescence quantitative PCR kit (HaiGene) and a quantitative PCR system (Bio-Rad Min-Opticon Type 2) were used for real-time fluorescent quantitative polymerase chain reaction (RT-PCR). The mouse gene primers were design as follows: • KLOTHO-forward 5′-[…]-3′; • LOTHO-reverse 5′-[…]-3′; • GAPDH-forward 5′-[…]-3′; • GAPDH-reverse 5′-[…]-3′.
Data analysis was performed using the 2^−ΔΔct method. Semi-quantitative values of gene expression were then normalized by the control mean.

LN-229 cells = experiment: Brain cancer model, LN-229 cells injected into the striatum, tumor volume; type: in vivo, mouse; settings: mice with LN-229 cells in striatum, 5 mg/kg body weight/day
Method: The treatment lasted for a total of 30 days. The compounds was dissolved in DMSO and mixed into food pellets. The animals were given ad libitum access to the pellets. […] The difference is significant with P<0.05.

CCc1ccc(CC/C=C/c2ccc3c(c2)NC(=O)CC3)cc1 [ELB00727, (E)-7-(4-(4-ethylphenyl)but-1-en-1-yl)-3,4-dihydroquinolin-2(1H)-one]
EC50 (PPARγ): < 6.4 µM | number of errors in water maze on the third day (APP/PS1 transgenic mice; 5 on the first day): ~1 | reduction in the number of errors (reference memory), third day compared with first day (APP/PS1 transgenic mice; eight-arm water maze): significant | blood TNF-α level compared with disease control group [1]: significant TNF-α level reduction | insulin resistance index ISI=ln (FBG*FINS) compared with disease control group [1]: significant ISI increase | urine albumin to creatinine ratio (ACR) compared with disease control group [1]: significant ACR reduction | mRNA level of klotho gene in the brain of the mouse relative to vehicle control group (klotho gene; after 10 days of continuous injection): more than twice | fold induction at 10 mg/kg (klotho gene; Mus musculus, iv, 720 h, after 30 days of continuous injection, read-out: mRNA level of klotho gene in the brain of the mouse relative to vehicle control group): > 5 | tumor volume at 30 days compared with disease control group (LN-229 cells): significant tumor volume reduction
